In US6779656B2, “Polymerizable preparations based on epoxides that contain silicon” (3M Espe AG, priority 2000, dated 2004):
Where two headings read alike, the source gives them in different places.

Experiment: Ames test (ISO/FDIS 7405), mutagenicity test
Format: cell-based
Description: The improved toxicity is manifested, for example, in a lower mutagenicity.

SMILES	Ames test (ISO/FDIS 7405) (mutagenicity)	Ames test (ISO/FDIS 7405)
O=C(OCC1CCC2OC2C1)C1CCC2OC2C1 (stereo not drawn) [3,4-epoxycyclohexylmethyl 3,4-epoxycyclohexanecarboxylate, reference compound]	positive	
C[Si](C)(CC1CCC2OC2C1)CC1CCC2OC2C1 (stereo not drawn) [dimethylbis[2-(7-oxabicyclo[4.1.0]hept-3-yl)methyl]-silane]		negative
C[Si](CCC1CCC2OC2C1)(CCC1CCC2OC2C1)c1ccccc1 (stereo not drawn) [methylbis[2-(7-oxabicyclo[4.1.0]hept-3-yl)ethyl]phenyl-silane]		negative
